Data taken from patent publication EP0162545A2, “Enhanced bioconversion processes” (BETZ EUROPE, INC., priority 1984, dated 1985).
Where two headings read alike, the source gives them in different places.

What was measured:
E. coli K12 ATCC 25404 = assay: Batch culture biomass yield and glucose removal; assay type: cell-based, Escherichia coli
Experimental: Biomass determinations were by Millipore Filtration using Millipore type H.A. 0.45 µ filters. Samples were centrifuged @ 15,000 x for 10 min., supernatant was filtered through a dried and preweighed filter. The centrifuged pellet was then vortexed in 2 mL of D.I. water and filtered also. Samples were then dried overnight @ 105°C and re-weighed. Biomass was the weight of the dried filter less the tared filter weight.
Glucose determinations were carried out on the centrifuged reactor sample supernatants using glucose enzymatic assay (hexokinase and glucose 6-phosphate dehydrogenase) UV-15 Sigma Chemical Co., St. Louis, MO. (Assay set-up pamphlet accompanies kit). Spectrophotometric measurements were run on a Zeiss PM-6 Spektralphotometer, Carl Zeiss, 7082 Oberkochen, West Germany.
Escherichia coli K12 ATCC 25404 was grown to 175 K.U. (after 48 hours) on 10 g/1 dextrose, 75 mL/1 25x VBE, 5 mL/1 trace mixture. Ten mL of this culture was then used as seed for 300 mL of media of the same composition and dosed with varying concentrations of CCCP, myristic acid and salicylanilide.
Initial and 72 hour measurements for glucose and biomass were run by the previously described methods.

Klebsiella = assay: microbe, parasite or virus in culture; assay type: cell-based; conditions: Klebsiella, read-out: increase in C02 blowoff
Experimental: These patterns were the results of Klebsiella cultures having been grown on glucose (^14C-label). In nature, and in waste treatment facilities, many organic carbon compounds, both simple and complex, would be available for degradation. The known uncouplers and BNS were tested for their ability to increase C02 evolution from cultures exposed to the common substrates lactate, glycine, glycerol, and a denatured protein mixture. […] This was expected in the case of glycine but it was thought that a more complex protein might be degraded and portions used for some energyproduction. It was hoped that these compounds might be a more representative group (more abundant in waste treatment) than simple sugars for determining the extent of activity of BNS. […] Lactate, a common intermediate in microbial metabolism, and a compound which would normally be used as an oxidizable substrate for running the cytochrome chain, gave a more representative response. BNS treated cultures gave increased C02 blowoff (an increase as high as 130% at 5 µg/mL) as did both known uncouplers. […] When glycerol was used as the labeled substrate, BNS treated cultures gave increased C02 at concentrations up to 5 µg/mL.
The procedure used for determining the CO2 evolution was similar to the procedure described previously. Cells having been grown overnight in MSM and glucose were centrifuged and resuspended in MSM + glucose (cold) and used as inoculum. No other cold carbon source (unlabeled) was added. ^14C-labeled substrates (lactate, glycerol, etc.) obtained from New England Nuclear were used and supplied the radiolabeled carbon for the detection of ^14CO2. BNS was utilized in concentrations of 0.5 - 10 µg/mL. Fixed concentrations of 5 µg/mL CCCP and DNP were included for comparative purposes. The following data were obtained in these experiments.

Klebsiella pneumoniae [1] = assay: microbe, parasite or virus in culture; assay type: cell-based
Experimental: (§1) The first series of experiments involved the measurement of the amount of C02 evolved from aerobically growing cultures of the representative organism Klebsiella in the presence and absence of uncoupling agents. The known uncouplers 2, 4 dinitrophenol (DNP) and carbonyl cyanide m-chlorophenyl hydrazone (CCCP) were tested along with bis (tricholoromethyl) sulfone (TCMS) and beta-bromo-beta-nitrostyrene (BNS). It can be seen from the data that CCCP caused large increases in C02 evolution over the untreated controls at all concentrations used, with the largest increase (29%) at 5 µg/mL (24.4 uM). […] Bacterial counts also reflected the lack of uncoupling activity. […] Largest increase in C02 blowoff came at 50 ppm (32%). BNS gave a mixed pattern as opposed to those of DNP and CCCP. […] Even at 10 µg/mL, the bacterial count was reduced ~ 50% while still giving greater C02 blowoff than control cultures.
The procedure utilized to perform the first series of experiments was as follows: • Sealed vials containing 8 mL of minimal salts medium (Composition: K2HPO4-39, KH2PO4-lg, MgSO4-0.2g, (NN4)2SO4^-1g, D-glucose-5g (optional) in 1 liter. Autoclave and adjust pH to 6.8) lacking any carbon source were each injected with 1 mL of a suspension of Klebsiella pneumoniae. (Klebsiella was grown overnight, shaken at 37°C, in minimal salts medium containing glucose to a heavy cell suspension. The cells were centrifuged at 10,000 g and resuspended to a turbidity of 150 Klett units [Klett-Summerson photometer, #42 blue filter) in minimal salts medium [MSM], no glucose. These cells were again centrifuged, and resuspended in MSM at 1/10 the volume used previously. This 10X cell suspension was used as the standard inoculum for the vials.) The vials were- simultaneously injected with 1 mL of a 1 µ Ci/mL solution of ^14C-U-D glucose and the appropriate concentration of material to be tested. The compounds tested were fed at concentrations of […]. Controls received no test material and all vials were shaken during the course of the experiments at 37°C. Vials were read for C02 blowoff at the times indicated on the appropriate Tables. Standard bacterial counts were done on each vial after the end of each experimental series. [formula] [formula] [formula] [formula]

Klebsiella pneumoniae [2] = assay: Standard bacterial counts on the CO2 blowoff vials, first series; assay type: cell-based
Experimental: as §1
The procedure utilized to perform the first series of experiments was as follows: • Sealed vials containing 8 mL of minimal salts medium (Composition: K2HPO4-39, KH2PO4-lg, MgSO4-0.2g, (NN4)2SO4^-1g, D-glucose-5g (optional) in 1 liter. Autoclave and adjust pH to 6.8) lacking any carbon source were each injected with 1 mL of a suspension of Klebsiella pneumoniae. […] Vials were read for C02 blowoff at the times indicated on the appropriate Tables. […]

Saccharomyces cerevisiae = assay: Yeast-alcohol batch fermentation with uncoupler dosing; assay type: cell-based; conditions: 2.0 ppm CCCP
Experimental: Saccharomyces cerevisiae (Institute of Marine Sciences, U. Of Miami Culture Collection) was used in the following fermentation medium: 1% glucose, 13.4 g/1 yeast nitrogen Base (BBL, Cockeysville, MD), 0.5 g/1 sodium thioglycollate. pH was 5.68, temperature 33°C, agitation 8.5/10 on Fisher Versamix stirplate. CCCP was dosed at 2.0 mg/l.
Reaction vessel was a 3.0 liter working volume fermenter jar - New Brunswick Scientific. Temperature control was held by recirculation of a 33°C hot water bath through the reactor heating coils by a Little Giant Model 1 submergible pump (Little Giant Pump Co., Oklahoma City, OK).
Glucose and biomass determinations were made by the previously mentioned techniques. Ethanol determinations was by the alcohol dehydrogenase method 331-UV (Sigma Chemical Co., St. Louis, MO). Reactors were run for approximately 150 hours with sampling times varying throughout the experiment.

[3] = Escherichia coli, ATCC25404, 72 h, read-out: drop in biomass yield

CCCCCCCCCCCCCC(=O)O [Myristic acid, myristic acid]
inhibition of growth at 25 ppm (E. coli K12 ATCC 25404; Escherichia coli, ATCC25404, 25 ppm, batch, 72 hour, read-out: reduction in biomass yield): 19.5%
inhibitory effects on glucose removal (E. coli K12 ATCC 25404; up to 25 ppm, batch, 72 hour): no inhibitory effects

O=[N+]([O-])c1ccc(O)c([N+](=O)[O-])c1 [DNP, 2, 4 dinitrophenol, reference compound]
activation at 5 µg/mL (Klebsiella): 83%
activation at 50 ppm (Klebsiella pneumoniae [1]; Klebsiella pneumoniae, read-out: Largest increase in C02 blowoff): 32%
minimal effective concentration (Klebsiella pneumoniae [1]; Klebsiella pneumoniae, read-out: concentrations causing significant increases in C02 blowoff): > 5 µg/mL
toxic effects (bacterial counts) (Klebsiella pneumoniae [2]; even at 50 ppm): no toxic effects

O=S(=O)(C(Cl)(Cl)Cl)C(Cl)(Cl)Cl [TCMS, bis (tricholoromethyl) sulfone]
uncoupling property (C02 evolution) (Klebsiella pneumoniae [1]; all concentrations, 14C-glucose): no uncoupling property

N#CC(C#N)=NNc1cccc(Cl)c1 [CCCP, carbonyl cyanide m-chlorophenyl hydrazone]
activation at 5 µg/mL (Klebsiella; 14C-lactate as labeled substrate, 5 µg/mL): 151%
glucose removal efficiency (E. coli K12 ATCC 25404; 0.4 ppm, batch, 72 hour): 100%
carbon (glucose) removal efficiency (E. coli K12 ATCC 25404; 1.0 ppm, batch, 72 hour): 98.2%
drop of glucose removal efficiency from control (E. coli K12 ATCC 25404; 1.9 ppm, batch, 72 hour): 4.8%
glucose removal efficiency (E. coli K12 ATCC 25404; 1.9 ppm, batch, 72 hour): 95.2%
inhibition of growth at 0.4 ppm (E. coli K12 ATCC 25404; [3]): 14.6%
inhibition of growth at 1 ppm (E. coli K12 ATCC 25404; [3]): 28%
inhibition of growth at 1.9 ppm (E. coli K12 ATCC 25404; [3]): 42.7%
g ETOH formed hr. max. (Saccharomyces cerevisiae): 0.45
g ETOH formed hr. max., change vs Control (Saccharomyces cerevisiae): +41.6%
g glucose consumed/hr. max. (Saccharomyces cerevisiae): 0.39
g glucose consumed/hr. max., change vs Control (Saccharomyces cerevisiae): +88%
g cells mole glucosef (Saccharomyces cerevisiae; f = final): 6.59
g cells mole glucosef, change vs Control (Saccharomyces cerevisiae; f = final): -44.1%
mole ETOH/Mole Glucosef g cells (Saccharomyces cerevisiae; f = final): 4.02
mole ETOH/Mole Glucosef g cells, change vs Control (Saccharomyces cerevisiae; f = final): +105.1%
moles ETOH/ mole glucosef* (Saccharomyces cerevisiae; f = final): 1.39
moles ETOH/ mole glucosef*, change vs Control (Saccharomyces cerevisiae; f = final): +9.4%
activation at 5 µg/mL (Klebsiella pneumoniae [1]; Klebsiella pneumoniae, 5 µg/mL (24.4 uM), 14C-glucose, read-out: largest increase in C02 evolution over the untreated controls): 29%
bacterial counts (Klebsiella pneumoniae [2]; 50 µg/mL): the same as the control levels

O=C(Nc1ccccc1)c1ccccc1O [Salicylanilide, salicylanilide]
glucose removal efficiency (E. coli K12 ATCC 25404; 50.5 ppm, batch, 72 hour): 99.7%
inhibition of growth at 50.5 ppm (E. coli K12 ATCC 25404; Escherichia coli, ATCC25404, 50.5 ppm, batch, 72 hour, read-out: drop in biomass yield): ≤ 40.2%
